The values below come from patent publication US11950907B2, “Method for non-invasive monitoring of fluorescent tracer agent with diffuse reflecting medium with time-varying optical properties” (MediBeacon Inc., priority 2017, dated 2024).

SMILES strings stand for the structures.

The nature of data set [1]: Absorption and emission spectra of the exogenous fluorescent agent (FIG. 3). The format is physicochemical. From the text:
By way of illustrative example, FIG. 3 is a graph summarizing the absorption spectra for HbO2 and Hb, as well as the absorption and emission spectra of frequency spectra of MB-102, an exogenous fluorescent agent in one aspect. Emission spectra for a blue LED light source and a green LED light source are also shown superimposed over the other spectra of FIG. 3. In this aspect, the system 200 may include a blue LED as the first light source 218, and the excitatory wavelength for the system 200 may be the isosbestic wavelength of about 450 nm. […] However, at wavelengths above about 500 nm, the HbO2/Hb spectra are less steeply sloped, and a broader band light source including, but not limited to, an LED with a bandpass filter may suffice for use as a first light source 218.
In another aspect, the excitatory wave length may be selected to enhance the contrast in light absorbance between the exogenous fluorescent agent and the chromophores within the tissues of the patient 202. […] Without being limited to any particular theory, a higher proportion of light illuminating the tissue of the patient 202 at a wavelength of about 450 nm will be absorbed by the MB-102 relative to the HbO2 and Hb, thus enhancing the efficiency of absorption by the MB-102 and reducing the intensity of light at the excitatory wavelength needed to elicit a detectable fluorescence signal. […]

Data set [2] in a line: Transdermal fluorescence monitoring of renal elimination of the agent during perturbations (Example 1). The format is in vivo. To be noted: pig, time points later than 2 hours after agent injection, no baseline subtraction, FIG. 21B. The text has this:
A system similar to the system 200 described herein above was used to monitor the fluorescence produced during the renal elimination of an exogenous fluorescent agent, MB-102, using the methods described herein above, in particular the diffuse reflectance data correction method.
FIG. 21A is a graph summarizing the changes in the magnitude of the raw fluorescence signal (Flr) just prior to injection of the MB-102 fluorescent agent into a pig and for about six hours post-injection. During the post-equilibration portion, corresponding to a time of about 13:45 in FIG. 21A, the pig was subjected to a series of perturbations selected to vary the optical properties of the pig's skin and/or underlying tissues: administration of blood pressure medications to induce vasodilation/vasorestriction 2102, application of pressure to compress the tissue 2104, lateral movement of the sensor head 2106, SpO2 decrease 2108, SpO2 decrease 2110, remove/replace sensor head 2112/2114, and skin cooling 2116.
FIG. 21B is a graph summarizing the corrected intrinsic fluorescence signal (IF) corrected as described herein above with no baseline subtraction.

The nature of data set [3]: Transdermal fluorescence measurements from a patient before and after injection of the agent (FIG. 15). In kind it is in vivo. To be noted: about 10 hours after injection, after peak concentration. The procedure: FIG. 15 is a graph of fluorescence measurements obtained from a patient over a period of about 10 hours after injection of an exogenous fluorescence agent (MB-102) after a pre-injection period of about 3 hours. Referring to FIG. 15, the pre-injection/baseline period 1502 is characterized by a relatively low and stable fluorescence level, likely due the absence of […] fluorescent agent in the blood of the patient. […] Without being limited to any particular theory, it is thought the injected exogenous fluorescence agent is likely equilibrated across the extra-cellular space once the decay of the fluorescence is well-described by a […] (or a line on semi-log plot).

As to `Nc1nc(C(=O)N[C@H](CO)C(=O)O)c(N)nc1C(=O)N[C@H](CO)C(=O)O` [MB-102], the “light absorption relative to HbO2 and Hb” value in data set [1] (at the isosbestic wavelength of 452 nm) is reported as “more than three-fold higher”. For the same compound, the emission peak wavelength entry in data set [1] (emission spectrum) is recorded as “about 550 nm”. Besides, the “time course of corrected intrinsic fluorescence (IF) signal” value in data set [2] is “expected single-exponential decay of the signal”. Further, the “time course of fluorescence after injection” value in data set [3] is recorded as “relatively smooth exponential decrease”.
